# Measurements taken from patent publication US10709707B2, “Methods of treating ocular conditions” (Oyster Point Pharma, Inc., priority 2016, dated 2020).
# pEC50, pIC50, pKi: −log10 of the molar value. “Also recorded” adds a separate entry of the source. Where two headings read alike, the source gives them in different places.
# Legend:
# plasma protein binding = format: in vitro ADME; details: mouse, rat, guinea pig, dog, monkey and human plasma; concentrations up to about 113 μM
# [1] = test system: paclitaxel-induced neuropathy, allodynia; test: Reversing symptoms of paclitaxel-induced neuropathy; format: in vivo, Rat
# [2] = target: T1, rat ganglion receptors α3β4 (Rattus norvegicus, UniProt P04757+P12392); test: Receptor function ganglionic receptors (rat), PC-12 cells; format: cell-based; details: for Emax: PC-12, Rat ganglion-type (a3b4*)
# T1 construct: endogenous in cells; host or cells: PC-12 cells (per the earlier reading)
# human α4β2 = human α4β2 (Homo sapiens, UniProt P17787+P43681); test: Receptor function α4β2, Ca++ flux; format: cell-based
# Method: There are two types of α4β2-containing nAChR, depending on which subunit occupies the fifth subunit of the pentaineric complex. There is a high sensitivity subtype, (α4β2)2β2, and a low sensitivity subtype, (α4β2)2α4. Targacept used a rudimentary assay to encourage the expression of one subtype over the other based on incubation temperature.
# Rabbit Purkinje fibers = test: Cardiovascular safety, rabbit Purkinje fibers in vitro
# [3] = 2-week and 13-week repeated dose TK studies, monkey; format: in vivo; details: for emesis: 100 mg/kg/day
# Method: In 2-week and 13-week repeated dose TK studies in monkey, animals were dosed orally at 10, 30 or 100 mg/kg/day (2-week study) or at 10, 30 or 60 mg/kg/day (13-week study). […] In the 2-week study, exposure increased roughly proportional to dose from 10 to 30 mg/kg/day on Days 1 and 14 and less than proportionally from 30 to 100 mg/kg/day on Days 1 and 14; emesis in the 100 mg/kg/day dose group, 6/6 animals on Day 1 and 5/6 animals on Day 14, may have contributed to this. There was little accumulation in any dose group from Day 1 to Day 14.
# [4] = test system: subjects (intranasal administration); test: Panel of compounds administered intranasally: effect on tearing and discomfort response; details: 50 microliters intranasally, three subjects, 0.01 mg/mL increased logarithmically up to 10 mg/mL
# Method: A panel of twenty compounds with various receptor binding profiles, including other nicotinic acetylcholine receptor (nAchR) agonists were tested. At the onset of the experiment, 50 microliters of a 0.01 mg/mL compound formulation was administered intranasally to three subjects.
# [5] = Solubility in aqueous solutions; format: physicochemical
# respiratory parameters = test: Respiratory safety pharmacology; format: in vivo, Rat: Sprague-Dawley
# human α7 = target: T2, human α7 (Homo sapiens, UniProt P36544); test: Receptor binding α7, recombinant human receptors in HEK cells; details: human α7 expressed in HEK cells
# T2 construct: expressed in transfected cells; host or cells: HEK cells (per the earlier reading)
# [6] = Cardiovascular safety, telemetry in conscious dogs po; format: in vivo, Dog: Beagle; details: beagle, dog, in vivo; 5, 10, 20 mg/kg po; read-out: terminal half-life (TK)
# [7] = test system: blood pressure, heart rate, ECG; test: as above; format: in vivo, Dog: Beagle
# a4b4 [8] = target: T3, a4b4 (Homo sapiens, UniProt P30926+P43681); test: Receptor function a4b4, Ca++ flux; format: cell-based
# a4b4 [9] = target: T3, a4b4; test: Receptor binding a4b4
# [10] = Single dose pharmacokinetics, monkey; format: in vivo, Cyno monkey; details: plasma; for AUC(0-t): t = 168 h, read-out: AUC0-1; for AUC(0-inf): read-out: AUCinf, unchanged parent
# Method: In a monkey study, [^14C]-Compound 1 was given at 10 mg/kg orally or 5 mg/kg by iv infusion. Oral bioavailability in this study was about 30%.
# [11] = test system: arterial pressure, heart rate, ECG, body temperature; test: Cardiovascular safety, conscious telemetered monkeys po; format: in vivo, Monkey: Cynomologous; details: single oral doses 3, 10, 30 mg/kg
# [12] = test system: general behavior (Irwin profile); test: CNS safety pharmacology, general behavior (Irwin profile); format: in vivo, Rat: Sprague-Dawley
# [13] = a4b2 HS (high sensitivity), 29° C., Ca++ Flux
# [14] = 2.5, 5, 10 mg/kg po once daily for 5 days
# [15] = cynomolgus monkey, Cyno monkey, 5 mg/kg [14C]-Compound 1, 20-minute intravenous
# [16] = cynomolgus monkey, Cyno monkey, 10 mg/kg [14C]-Compound 1, oral
# T3 sequence (P43681 29-627 limits assumed): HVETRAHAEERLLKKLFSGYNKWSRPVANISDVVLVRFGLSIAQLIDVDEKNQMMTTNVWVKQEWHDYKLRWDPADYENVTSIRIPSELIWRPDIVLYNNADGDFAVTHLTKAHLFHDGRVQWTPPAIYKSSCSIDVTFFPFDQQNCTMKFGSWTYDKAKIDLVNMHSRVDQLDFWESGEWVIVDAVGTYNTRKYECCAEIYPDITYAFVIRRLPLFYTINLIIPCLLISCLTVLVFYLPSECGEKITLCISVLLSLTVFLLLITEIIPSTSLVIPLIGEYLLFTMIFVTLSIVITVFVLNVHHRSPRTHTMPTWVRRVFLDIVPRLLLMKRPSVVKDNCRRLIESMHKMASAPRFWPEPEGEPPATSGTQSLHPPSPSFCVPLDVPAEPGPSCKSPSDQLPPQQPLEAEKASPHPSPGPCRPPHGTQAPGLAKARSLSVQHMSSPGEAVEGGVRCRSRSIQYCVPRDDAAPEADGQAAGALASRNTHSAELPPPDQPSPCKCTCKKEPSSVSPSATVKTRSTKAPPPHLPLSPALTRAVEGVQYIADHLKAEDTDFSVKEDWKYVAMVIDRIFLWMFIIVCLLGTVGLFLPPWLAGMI
# T3 sequence (P30926 22-498): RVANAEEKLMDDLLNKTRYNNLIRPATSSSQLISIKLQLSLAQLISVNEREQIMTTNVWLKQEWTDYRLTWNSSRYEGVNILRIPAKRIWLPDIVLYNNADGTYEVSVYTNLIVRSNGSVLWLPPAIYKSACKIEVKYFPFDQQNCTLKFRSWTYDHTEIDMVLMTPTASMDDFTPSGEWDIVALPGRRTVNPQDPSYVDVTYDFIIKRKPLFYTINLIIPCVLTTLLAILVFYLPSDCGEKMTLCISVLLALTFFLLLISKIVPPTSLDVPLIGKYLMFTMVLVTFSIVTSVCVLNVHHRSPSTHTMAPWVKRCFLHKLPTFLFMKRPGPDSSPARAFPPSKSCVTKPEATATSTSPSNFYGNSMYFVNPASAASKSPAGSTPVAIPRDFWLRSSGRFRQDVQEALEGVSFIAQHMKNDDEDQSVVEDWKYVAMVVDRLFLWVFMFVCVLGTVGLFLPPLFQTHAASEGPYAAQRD
# Sequence of human α4β2 (P43681 29-627 limits assumed): as the sequence (P43681 29-627 limits assumed) above
# Sequence of human α4β2 (P17787 26-502): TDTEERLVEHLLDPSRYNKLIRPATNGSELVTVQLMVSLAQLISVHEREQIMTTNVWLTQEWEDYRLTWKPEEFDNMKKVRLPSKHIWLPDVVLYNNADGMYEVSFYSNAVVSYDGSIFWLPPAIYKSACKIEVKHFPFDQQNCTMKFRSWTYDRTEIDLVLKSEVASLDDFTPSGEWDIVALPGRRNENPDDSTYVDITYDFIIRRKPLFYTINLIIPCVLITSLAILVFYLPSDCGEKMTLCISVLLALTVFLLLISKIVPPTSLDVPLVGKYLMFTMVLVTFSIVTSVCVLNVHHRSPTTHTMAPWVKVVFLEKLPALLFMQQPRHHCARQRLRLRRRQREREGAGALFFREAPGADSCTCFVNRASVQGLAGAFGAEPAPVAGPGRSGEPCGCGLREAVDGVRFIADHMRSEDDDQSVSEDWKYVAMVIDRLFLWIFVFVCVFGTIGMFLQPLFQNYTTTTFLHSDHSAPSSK
# T1 sequence (P04757 26-499): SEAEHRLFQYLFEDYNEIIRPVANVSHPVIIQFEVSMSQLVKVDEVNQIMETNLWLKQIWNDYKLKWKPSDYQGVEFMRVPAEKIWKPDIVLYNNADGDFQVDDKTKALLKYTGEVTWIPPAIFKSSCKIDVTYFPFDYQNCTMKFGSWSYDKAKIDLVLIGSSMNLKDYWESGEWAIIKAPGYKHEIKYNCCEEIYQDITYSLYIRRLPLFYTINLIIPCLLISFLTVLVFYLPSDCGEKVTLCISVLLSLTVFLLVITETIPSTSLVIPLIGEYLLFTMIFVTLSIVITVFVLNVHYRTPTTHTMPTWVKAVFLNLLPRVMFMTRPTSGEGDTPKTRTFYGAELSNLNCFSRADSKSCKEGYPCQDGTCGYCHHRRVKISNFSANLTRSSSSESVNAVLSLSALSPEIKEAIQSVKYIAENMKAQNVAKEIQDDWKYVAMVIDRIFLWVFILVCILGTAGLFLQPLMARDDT
# T1 sequence (P12392 21-495): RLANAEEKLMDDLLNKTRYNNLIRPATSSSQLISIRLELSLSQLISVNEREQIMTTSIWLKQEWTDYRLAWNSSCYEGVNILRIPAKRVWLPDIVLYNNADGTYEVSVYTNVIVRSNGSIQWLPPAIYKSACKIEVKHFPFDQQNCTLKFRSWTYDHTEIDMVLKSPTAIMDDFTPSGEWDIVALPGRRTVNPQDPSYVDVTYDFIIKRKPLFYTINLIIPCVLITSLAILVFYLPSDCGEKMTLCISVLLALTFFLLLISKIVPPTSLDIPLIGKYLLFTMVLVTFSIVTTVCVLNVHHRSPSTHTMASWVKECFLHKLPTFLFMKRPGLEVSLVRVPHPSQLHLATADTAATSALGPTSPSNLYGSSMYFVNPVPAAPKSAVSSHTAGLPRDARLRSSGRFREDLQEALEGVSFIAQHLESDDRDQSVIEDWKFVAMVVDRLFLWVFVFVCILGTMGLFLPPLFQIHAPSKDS
# T2 sequence (P36544 23-502): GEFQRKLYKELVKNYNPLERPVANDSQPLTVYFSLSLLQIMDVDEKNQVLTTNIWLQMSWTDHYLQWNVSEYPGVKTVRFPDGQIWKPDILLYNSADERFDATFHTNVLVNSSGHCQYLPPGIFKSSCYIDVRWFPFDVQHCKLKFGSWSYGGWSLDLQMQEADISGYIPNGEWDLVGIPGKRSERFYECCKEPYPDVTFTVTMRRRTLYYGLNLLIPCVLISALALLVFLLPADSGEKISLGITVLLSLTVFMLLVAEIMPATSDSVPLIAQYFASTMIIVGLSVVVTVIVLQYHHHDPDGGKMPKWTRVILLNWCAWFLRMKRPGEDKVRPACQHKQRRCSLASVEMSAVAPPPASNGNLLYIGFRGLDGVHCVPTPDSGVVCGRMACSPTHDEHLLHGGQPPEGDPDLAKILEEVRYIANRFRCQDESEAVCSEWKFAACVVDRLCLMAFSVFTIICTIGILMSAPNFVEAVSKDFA
compound,measurement,setting,value
"C(=C\[C@H]1CCNC1)/c1cncnc1 [Compound 1, (R)-5-((E)-2-pyrrolidin-3-ylvinyl)pyrimidine]",fraction unbound,plasma protein binding,> 0.87
same,allodynia vs vehicle-treated group,"[1]; 3 weeks post-dosing, only the 0.1 mg/kg dose",significantly different from vehicle.
same,allodynia vs vehicle-treated group,"[1]; once daily po 0.01, 0.1, 1.0 mg/kg, all doses, 4 weeks post-paclitaxel dosing",at all doses significantly reduced
same,reversing tactile allodynia,"[1]; paclitaxel-induced, 0.01-1 mg/kg p.o.",efficacious
same,Emax,[2]; Ca++ Flux,35%
same,Emax,"[2]; Rb+ Flux, single point",19%
same,Activity at rat ganglion receptors,[2]; PC-12 cells,receptors in PC-12 cells was low (19%).
same,pEC50,"[2]; Rat ganglion-type (a3b4*), Ca++ Flux",4.28
same,pEC50,"human α4β2; Ca++ flux, SH-EP1 cells expressing human α4β2",5.28
same,Emax,"human α4β2; Ca++ flux, SH-EP1 cells expressing human α4β2, read-out: Emax",120%
same,pEC50,"human α4β2; Human a4b2, Ca++ Flux",5.28
same,(Imax),"human α4β2; a4b2 HS 29° C., Ca++ Flux",98
same,pEC50,human α4β2; [13],5.48
same,pIC50,human α4β2; [13],6.37
same,DC50,"human α4β2; a4b2 LS 37° C., Ca++ Flux",0.45 µM
same,Dmax,"human α4β2; a4b2 LS 37° C., Ca++ Flux",98%
same,pEC50,"human α4β2; a4b2 LS (low sensitivity), 37° C., Ca++ Flux",5.28
same,Emax,"human α4β2; high sensitivity subtype (α4β2)2β2, read-out: Emax",120%
same,pEC50,human α4β2; human α4β2-containing nAChR,6.22
same,pIC50,human α4β2; low sensitivity subtype (LS),6.35
same,Emax,"human α4β2; read-out: Emax compared to nicotine, human α4β2-containing nAChR",120%
same,agonist type,human α4β2; α4β2 nicotine receptor subtype,full agonist
same,lengthening of action potential duration,Rabbit Purkinje fibers; 30 μM,7%
same,lengthening of action potential duration,Rabbit Purkinje fibers; 100 μM,20%
same,"resting membrane potential, action potential amplitude, Vmax",Rabbit Purkinje fibers; any concentration (3-100 μM),"no effect on resting membrane potential,"
same,action potential duration,Rabbit Purkinje fibers; at 3 and 10 μM,no effect
same,action potential duration,"Rabbit Purkinje fibers; at 30 and 100 μM, concentration dependent",dependent lengthening of the action
same,emesis,"[3]; Day 1, 2-week study",6/6
same,emesis,"[3]; Day 14, 2-week study",5/6
same,Tmax,"[3]; both sexes, cynomolgus, monkey, in vivo, oral 10-100 mg/kg/day, 2-week and 13-week studies",0.5 to 6 h
same,accumulation,[3]; either study,Little to no accumulation
same,gender effect,[3]; either study,no gender effect
same,Causes Tearing,[4],Yes
same,Discomfort Response,[4],No
same,solubility,"[5]; 0.1N HCl, simulated gastric fluid",> 10000 µg/mL
same,solubility,[5]; Water (pH 5.9),> 10000 µg/mL
same,solubility,"[5]; aqueous buffer, 0.1M citrate buffer (pH 4.0)",> 10000 µg/mL
same,solubility,"[5]; aqueous buffer, 0.1M phosphate buffer (pH 6.8)",> 10000 µg/mL
same,"respiratory rate, minute volume, peak inspiratory flow",respiratory parameters; 100 mg/kg po,"Transient adverse effects; also recorded: shortlasting increase in respiratory rate,"
same,respiratory parameters,respiratory parameters; 10 and 30 mg/kg po,10 and 30 mg/kg did not cause changes
same,tidal volume and index of airway resistance,respiratory parameters; 5 hour observation period,There were no changes in tidal volume and
same,"NOEL, respiratory",respiratory parameters; po,The NOEL was 30 mg/kg.
same,pKi,human α7,4.82
same,half-life,[6],1.3 to 4.2 h
same,other findings,[7]; 5 mg/kg po,5 mg/kg produced no other findings.
same,ventricular extrasystole 10 to 25 minutes after dosing,[7]; 10 mg/kg po,10 mg/kg was associated with 1
same,emesis,[7]; 20 mg/kg po,emesis were noted at 20 mg/kg.
same,lengthening of the QT interval,[7]; 20 mg/kg po,"slight lengthening; also recorded: after dosing. In addition, slight"
same,ventricular extrasystole 10 to 25 minutes after dosing,[7]; 20 mg/kg po,20 mg/kg was associated with 1
same,PQ interval,[7]; [14],"tachycardia, and decreased PQ interval."
same,"QRS duration, QT interval, body temperature",[7]; [14],There were no changes in the QRS
same,accumulation after repeat dosing (TK),[7]; [14],sexes. No accumulation was observed after
same,tachycardia,[7]; [14],"pressure (mainly diastolic), marked"
same,dose proportionality of Cmax and AUC (TK),"[7]; 2.5, 5, 10 mg/kg po, either sampling day",TK: There were no proportional increases
same,increase in blood pressure and bursts of sinus tachycardia,"[7]; 5, 10, 20 mg/kg po, all dogs",Compound 1 produced a transient and slight
same,emesis shortly after dosing,[7]; all doses,exhibited emesis
same,systolic and diastolic blood pressure and heart rate,[7]; oral doses up to 10 mg/kg,non-dose dependent increase
same,pEC50,a4b4 [8],5.37
same,Emax,a4b4 [8],98%
same,pKi,a4b4 [9],6.17
same,Tmax,[10]; [15],0.333 h
same,AUC(0-t),[10]; [15],1530 ng·h/mL
same,half-life,"[10]; cynomolgus monkey, Cyno monkey, 5 mg/kg [14C]-Compound 1, 20-minute intravenous, read-out: t1/2 (converted)",2.1 h
same,Tmax,[10]; [16],2.25 h
same,AUC(0-t),[10]; [16],942 ng·h/mL
same,bioavailability,"[10]; cynomolgus monkey, Cyno monkey, 10 mg/kg [14C]-Compound 1, oral, read-out: F (oral bioavailability)",31.1%
same,half-life,"[10]; cynomolgus monkey, Cyno monkey, 10 mg/kg [14C]-Compound 1, oral, read-out: t1/2 (converted)",1.9 h
same,AUC(0-inf),"[10]; cynomolgus, 5 mg/kg iv infusion",1530 ng·h/mL
same,Cmax,"[10]; cynomolgus, Cyno monkey, 5 mg/kg [14C]-Compound 1, 20-minute intravenous",2030 ng/mL
same,Cmax,"[10]; cynomolgus, Cyno monkey, 10 mg/kg [14C]-Compound 1, oral",254 ng/mL
same,bioavailability,"[10]; cynomolgus, oral, [14C]-Compound 1, 10 mg/kg orally vs 5 mg/kg iv infusion, read-out: Oral bioavailability",~30%
same,AUC(0-inf),"[10]; cynomolgus, po, 10 mg/kg orally",969 ng·h/mL
same,half-life,"[10]; cynomolgus, po, 10 mg/kg orally, read-out: half-life, unchanged parent (converted)",1.9 h
same,"arterial pressure, heart rate, ECG parameters, body temperature",[11],no noteworthy changes
same,"arterial pressure, heart rate, ECG parameters, body temperature",[11]; listed as TC6499,monkeys did not induce notable effects
same,"NOEL, general behavior (Irwin profile)","[12]; 15, 50, 150 mg/kg po",greater than 150 mg/kg.
same,effect on general behavior (Irwin profile),"[12]; po, doses up to and including 100 mg/kg",no noteworthy changes; also recorded: Compound 1 had no effect on general
